# In US10548911B2, “Small molecule anti-scarring agents” (UNIVERSITY OF ROCHESTER, priority 2014, dated 2020):
# Entries after “also recorded” stand apart in the source; their conditions may differ.
# Legend:
# [1] = tested on: TGFβ induced Smad-luc activity; assay: Smad-luc reporter in human orbital fibroblasts electroporated with control or MKK6(glu) plasmid; format: cell-based; settings: 250 nM, 24 hours
# Method: Plasmid DNA was introduced into human fibroblasts by electroporation. Plasmids were electroporated with an Amaxa nucleofector (program U-025) into 1×10^6 cells. The pcDNA3-flag MKK6(glu) plasmid was obtained from Addgene (plasmid 13518, from Roger Davis' lab). After transfection cells were cultured for 12-24 hours and culture medium was subsequently changed to treatment conditions.
# To further test if salinomycin targets the p38 pathway to block myofibroblast formation, a plasmid encoding a mutant MKK6 (pcDNA3-flag MKK6(glu)) protein was used. MKK6 phosphorylates and thus activates p38 in response to extracellular signals such as TGFβ or other environmental stresses. The MKK6(glu) protein, which harbors glutamate mutations at amino acid residues serine 207 and threonine 211, is constitutively active and thus phosphorylates p38 irrespective of signal (Raingeaud et al., “MKK3- and MKK6-regulated gene expression is mediated by the p38 mitogen-activated protein kinase signal transduction pathway,” Mol. Cell. Biol. 16:1247-1255 (1996), which is hereby incorporated by reference in its entirety). Thus, if salinomycin is blocking the p38 signaling pathway, MKK6(glu) should overcome the effect of salinomycin. MKK6(glu) was first tested using the SBE4-TK-luc reporter plasmid. The luciferase reporter plasmid was introduced into human fibroblasts along with the MKK6(glu) plasmid or a control plasmid (pcDNA3-GFP). Cells were then treated with vehicle, TGFβ or TGFβ plus 250 nM salinomycin. After 24 hours, luciferase activity was measured (FIG. 6A). […] MKK6(glu) was further tested to assess whether it could attenuate the ability of salinomycin to inhibit p38 phosphorylation. Control or MKK6(glu) plasmids were introduced into human fibroblasts by electroporation and then cells were treated with TGFβ for 24 hours. Following treatment, cells were analyzed for flag-MKK6(glu) expression and phospho-p38 by Western blot (FIG. 6B). […] Samples were analyzed for expression of flag-MKK6(glu), αSMA, calponin and β-tubulin by Western blot (FIG. 6C).
# [2] = tested on: TGFβ-induced luciferase activity; assay: Spectrum collection small molecule screen with TGFβ-dependent SBE-luciferase HEK293FT reporter cell line; format: cell-based, human; settings: HEK293FT-luc reporter line
# Excerpt: The minimal thymidine kinase promoter was amplified by PCR with the following forward and reverse primers, of which the forward primer contained four tandem Smad binding elements (SBE):
# Restriction sites in the primers are underlined. The resultant PCR product was TOPO cloned (Invitrogen) and the correct insert was verified by DNA sequencing. The construct was digested with SacI-HindIII and the SBEx4-TK insert was purified and ligated with the pGL4.15 vector (Promega). Clones were verified by restriction digest and then tested for TGFβ responsiveness in transient transfections of 293FT cells. […] Clones were selected by treatment with 200 μg/ml hygromycin. 20 clones were selected and screened for TGFβ-induced luciferase activity. One clone that was robustly responsive was subsequently used in the small molecule screen.
# Excessive scarring results from the formation of too many myofibroblasts and the production of too much extracellular matrix material such as collagen. Since TGFβ drives the formation of myofibroblasts in part through activating the Smad pathway, a reporter construct was designed to serve as a measure of TGFβ-induced Smad activity (FIG. 1A). Four tandem Smad binding elements (SBE) were inserted upstream of the minimal thymidine kinase promoter. The SBEx4-TK promoter was inserted into the pGL4.15 vector which contains a destabilized firefly luciferase gene and the hygromycin resistance gene. The pSBEx4-TK-luc-Hygro plasmid was then introduced into HEK293FT cells by lipofection. Stable clones were generated and screened for TGFβ induced luciferase activity. One clone was selected that consistently gave a 15 to 20-fold induction of luciferase activity when cells were treated with TGFβ for 24 hours (FIG. 1B).
# To find compounds that inhibit TGFβ activity and thus may be novel anti-scarring compounds, the Spectrum collection of 2,300 small molecules was screened with the cell line. […] Salinomycin, an antibiotic produced from Streptomyces albus is used as coccidiostat agent in animal feed (Knirschova et al., “Multiple regulatory genes in the salinomycin biosynthetic gene cluster of Streptomyces albus CCM 4719,” Folia Microbiologica 52:359-365 (2007), which is hereby incorporated by reference in its entirety). […] Thus, further investigation was made to assess the use of salinomycin as an anti-scarring agent.
# human fibroblasts = assay: BrdU incorporation assay (cell proliferation); format: cell-based; settings: for basal fibroblast proliferation (BrdU incorporation): 250 nM, without TGFβ
# Method: Human fibroblasts were seeded on a 96-well plate at a density of 1×10^5 cells/well. Cells were treated in triplicate. Cell proliferation was determined using the bromodeoxyuridine (BrdU) assay following manufacturer's instructions. Briefly, cells were treated with a BrdU label at a 1:2000 dilution for 24 h after the initial 72 h treatment with TGFβ+/−drugs. BrdU incorporation was measured using the BrdU Cell Proliferation Assay kit (Calbiochem, San Diego, Calif.) at 450-540 nm using a Varioskan microplate reader.
# While salinomycin and other polyether ionophores blocked myofibroblast formation, it was next assessed whether these effects were a result of toxicity and/or due to a block of cell proliferation. Though the treatment doses are relatively low (efficacy in 100-250 nM range), a loss of cell viability could still be a possibility. To test this, human fibroblasts were treated with vehicle (DMSO), 50-250 nM salinomycin alone, TGFβ or TGFβ plus 250 nM salinomycin. As a positive control, fibroblasts were treated with the cytotoxic drug, puromycin. Treated cells were cultured in the presence of alamar blue reagent, which measures mitochondrial oxidation-reduction (REDOX) potential and serves as a quantitative viability sensor. After 72 hours of culture, alamar blue fluorescence was measured to assay cell viability (FIG. 4A). […] It was also tested whether salinomycin affects basal fibroblast proliferation. To address this, cells were treated with vehicle or 250 nm of either salinomycin or narasin for 24 hours in the presence of bromodeoxyuridine (BrdU) to measure cell proliferation ([…], first three bars). […] BrdU was also added to cells treated with TGFβ in the presence or absence of 250 nM salinomycin or narasin (FIG. 4B, last three bars). As expected, TGFβ induced human fibroblast proliferation. Remarkably, both salinomycin and narasin were able to beneficially block TGFβ induced proliferation by 4 to 5 fold, without affecting basal proliferation levels.
structure (smiles),measurement,setting,value
CC[C@@H](C(=O)[C@@H](C)[C@@H](O)[C@H](C)[C@@H]1O[C@@H]([C@@H](CC)C(=O)O)CC[C@@H]1C)[C@H]1O[C@]2(C=C[C@@H](O)[C@]3(CC[C@@](C)([C@H]4CC[C@](O)(CC)[C@H](C)O4)O3)O2)[C@H](C)C[C@@H]1C [salinomycin],TGFβ-induced Smad-luc (luciferase) activity,[1]; constitutively active MKK6(glu) plasmid,attenuated the effect of salinomycin; also recorded: unable to block TGFβ-induced luciferase activity
same,TGFβ-induced Smad-luc (luciferase) activity,[1]; control (GFP) plasmid,completely blocked TGFβ-induced luciferase activity
same,TGFβ-induced Smad-luc (luciferase) activity,"[1]; control (GFP) plasmid, listed as Salinomycin",blocked TGFβ induced Smad-luc activity
same,"inhibition of TGFβ-induced luciferase activity, initial screen",[2],blocked TGFβ-induced luciferase activity; also recorded: particularly potent at inhibiting luciferase activity
same,TGFβ induced proliferation (BrdU incorporation),human fibroblasts; 250 nM plus TGFβ,significantly blocked TGFβ induced proliferation
same,basal fibroblast proliferation (BrdU incorporation),human fibroblasts,Neither salinomycin nor narasin blocked basal fibroblast proliferation
same,basal fibroblast proliferation (BrdU incorporation),human fibroblasts; listed as Salinomycin,did not affect basal fibroblast proliferation
